Measurements: patent US8258138B2, “Potassium channel blockers” (Xention Limited, priority 2008, dated 2012)

Assays:
human Kv1.3 = target: T1, human Kv1.3 (Homo sapiens, UniProt P22001); assay: Kv1.3 Autopatch electrophysiology (whole cell patch-clamp, inhibition of charge movement); format: cell-based; details: compound at 1 μM; cells stably transfected with human Kv1.3; room temperature; total charge during step to +30 mV relative to control; read-out: hKv1.3 % inh.
T1 construct: expressed in transfected cells; host or cells: stably transfected cells grown in medium for CHO cells
T1 sequence (P22001 whole entry): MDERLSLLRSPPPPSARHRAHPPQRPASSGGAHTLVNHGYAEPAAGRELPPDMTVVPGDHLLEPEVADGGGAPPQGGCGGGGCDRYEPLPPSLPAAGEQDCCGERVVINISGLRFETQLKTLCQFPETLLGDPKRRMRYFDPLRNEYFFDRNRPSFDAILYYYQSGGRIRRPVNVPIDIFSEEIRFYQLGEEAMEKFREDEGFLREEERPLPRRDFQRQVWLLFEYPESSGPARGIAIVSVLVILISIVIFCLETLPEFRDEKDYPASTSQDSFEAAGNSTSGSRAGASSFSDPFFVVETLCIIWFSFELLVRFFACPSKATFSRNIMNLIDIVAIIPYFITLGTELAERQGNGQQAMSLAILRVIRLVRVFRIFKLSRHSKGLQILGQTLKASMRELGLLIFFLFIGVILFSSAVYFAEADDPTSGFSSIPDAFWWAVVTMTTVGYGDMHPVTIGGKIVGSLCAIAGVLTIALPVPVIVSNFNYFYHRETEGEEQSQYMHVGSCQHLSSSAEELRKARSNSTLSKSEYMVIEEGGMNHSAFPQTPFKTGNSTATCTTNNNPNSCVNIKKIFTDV
Procedure: Kv1.3 Autopatch Electrophysiology Method
Compounds were tested on these cells using the AutoPatch technology in whole cell mode.
The external bathing solution contained (in mM): 150 NaCl, 10 KCl, 1 MgCl2, 3 CaCl2, 10 HEPES, pH 7.4 with NaOH. Patch pipettes were filled with an electrode solution of composition (in mM): 100 K-Gluconate, 20 KCl, 1 MgCl2, 1 CaCl2, 10 HEPES, 11 EGTA, 5 ATP-Na2, 2 Glutathione pH 7.2 with KOH.
Compounds were dissolved in DMSO (100%) and made up in the external bather at a concentration of 1 μM immediately prior to use. All experiments were conducted at room temperature.
A cell suspension (10 ml), with a density of 6×10^6 cells, was aliquoted into a 15 ml centrifuge tube and stored at 4° C. before use. Prior to use a tube was taken and centrifuged at 1000 rpm for 4 mins at room temperature. The supernatant was then discarded, leaving a cell pellet at the bottom of the tube. The pellet was then resuspended using 1 ml of cold (4° C.), filtered (0.22 μm), 0.05% BSA/bather solution (0.05 g BSA/100 ml bather). The bottom of the tube was manually agitated followed by gentle tituration. The cell suspension was then placed in the AutoPatch™ temperature controlled cell-hotel at 14° C. and regularly titurated.
A length of Teflon capillary tubing was dipped into the cell suspension solution, and a column of fluid was taken up by negative pressure. The column of fluid was in electrically connectivity with a Ag/AgCl reference electrode. Borosilicate glass patch pipettes (from 1.5 mm OD, thin-walled filamented, GC150-TF capillary glass, Harvard) were pulled using a DMZ pipette puller (Zeitz Instruments), and were back-filled using the internal pipette solution, being careful that no bubbles remained at the tip or in the body of the pipette. Patch pipettes typically had resistances of 2.5-3.5 MΩ. Once filled, the pipette tip and a proportion of the shaft (˜15 mm) were dipped into Sigmacote (Sigma). The recording pipettes were placed in a multiwell array and mounted on the AutoPatch™ machine. Automated patch-clamping and drug-application was initiated by the operator, but thereafter AutoPatch.exe continued the experiment providing that pre-set conditions and criteria were satisfied.
Whole cell patch-clamp recordings were made using the AutoPatch™ rig, which incorporated an EPC9 or EPC10 amplifier (HEKA, Germany) under control of Pulse software (v8.54 or v8.76, HEKA, Germany), a cell applicator, automated drug application system (DAS), valve controller (VF1) and a suction device all at room temperature. This equipment was completely under the control of AutoPatch.exe and operator intervention was only made when there was a requirement to refill the bather reservoirs or to prevent the loss of a cell due to a technical error.
Cells were continuously perfused with external solution at a flow rate of ˜2 ml/minute.
Electrophysiology voltage-step protocols and analysis of data was performed as follows. Data were sampled at 5 kHz, and filtered with a −3 dB bandwidth of 2.5 kHz. Cells were held at a voltage of −80 mV. Currents were evoked by a voltage step to +30 mV for 500 ms in duration applied every 15 s. Online analysis of the hKv1.3 current during the application of compounds was performed by the Pulse (v8.54 or v8.76, HEKA, Germany), Excel (Microsoft, USA) and AutoPatch™ software, with the total charge measured during the whole of voltage step. Inhibition of charge movement in the presence of drug was calculated relative to control.

hKv1.5 = hKv1.5 (Homo sapiens, UniProt P22460); assay: Kv1.5 Autopatch electrophysiology (whole cell patch-clamp); format: cell-based; details: compound at 1 μM; room temperature (22-24° C.); total charge during step to 0 mV; read-out: hKv1.5 % inh.
Sequence of hKv1.5 (P22460 whole entry): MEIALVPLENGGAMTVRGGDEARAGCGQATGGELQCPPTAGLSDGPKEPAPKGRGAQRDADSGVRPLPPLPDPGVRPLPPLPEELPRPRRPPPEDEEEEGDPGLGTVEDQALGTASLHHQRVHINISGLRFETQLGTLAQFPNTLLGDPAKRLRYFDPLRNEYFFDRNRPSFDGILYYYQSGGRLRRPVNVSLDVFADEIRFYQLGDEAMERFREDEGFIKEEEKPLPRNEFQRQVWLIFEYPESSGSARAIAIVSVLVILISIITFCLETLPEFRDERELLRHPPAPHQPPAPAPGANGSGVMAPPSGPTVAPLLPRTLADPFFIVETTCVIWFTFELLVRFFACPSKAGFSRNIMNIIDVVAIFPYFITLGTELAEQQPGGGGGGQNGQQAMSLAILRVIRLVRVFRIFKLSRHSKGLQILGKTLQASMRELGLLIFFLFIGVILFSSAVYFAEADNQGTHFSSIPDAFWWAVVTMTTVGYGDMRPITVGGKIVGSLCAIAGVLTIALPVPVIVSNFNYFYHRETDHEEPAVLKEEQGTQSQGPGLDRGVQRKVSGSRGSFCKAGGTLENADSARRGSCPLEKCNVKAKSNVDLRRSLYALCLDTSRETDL
Procedure: Kv1.5 Autopatch Electrophysiology Method
The external bathing solution contained (in mM): 150 NaCl, 10 KCl, […], 3 MgCl2, 1 CaCl2, 10 HEPES, pH 7.4. Patch pipettes were filled with an electrode solution of composition (in mM): 160 KCl, 0.5 MgCl2, 10 HEPES, 1 EGTA, pH 7.4 with KOH.
Compounds were dissolved in DMSO (100%) and made up in the external bather at a concentration of 1 μM. All experiments were conducted at room temperature (22-24° C.).
A cell suspension (10 ml), with a density of 100,000 cells/ml, was aliquoted into a 15 ml centrifuge tube and transferred to an incubator (37° C., 5% CO2) for approximately one hour before use. Following 60 min incubation, a tube was taken and centrifuged at 1000 rpm for 4 mins at room temperature. 9.5 ml supernatant was thence discarded, leaving a cell pellet at the bottom of the tube. The pellet was then resuspended using 100 μl of cold (4° C.), filtered (0.22 μm), 0.2% BSA/bather solution (0.02 g BSA/10 ml bather). The bottom of the tube was manually agitated gently until the solution became cloudy with cells. The 100 μl cell resuspension solution was then stored on the bench at 4° C. (using a Peltier-based temperature control device) until used.
A length of capillary glass (1B150F-4, WPI) was dipped into the cell suspension solution, such that ˜3 cm column of fluid was taken up by capillary action. A Ag/AgCl wire was dropped into the non-dipped end of the capillary also. The outside of the solution-filled end of the capillary was then dried and the capillary was loaded into the AutoPatch™.
Borosilicate glass patch pipettes (from 1.5 mm OD, thin-walled filamented, GC150-TF capillary glass, Harvard) were pulled using a DMZ pipette puller (Zeitz Instruments), and were back-filled using the internal pipette solution, being careful that no bubbles remain at the tip or in the body of the pipette. Patch pipettes typically had resistances of 2.3-3.5 MΩ. Once filled, the pipette tip and a proportion of the shaft (˜15 mm) were dipped into Sigmacote (Sigma). The recording pipette was then loaded into the AutoPatch™ Automated patch-clamping was initiated by the operator, but thereafter AutoPatch.exe continued the experiment providing that pre-set conditions and criteria were satisfied.
Whole cell patch-clamp recordings were made using the AutoPatch™ rig, which incorporated an EPC9 amplifier (HEKA, Germany) under control of Pulse software (v8.54, HEKA, Germany), a motion controller with 2 translators (Newport, UK), valve controller (VF1) and a c-level suction device all at room temperature (22-24° C.). This equipment was completely under the control of AutoPatch.exe and operator intervention was only made when there was a requirement to refill the drug reservoirs or to prevent the loss of a cell due to a technical error. Cells with an Rseries greater than 18 MΩ were discounted from the experiment.
Qualification stages prior to perfusion and drug application ensured that the observed current met the criteria for the experiment. Only those cells with an IK>500 pA were used for experiments. Cells were continuously perfused with external solution at a flow rate of 1.8-2 ml/minute. […] Online analysis of the hKv1.5 current during the application of compounds was performed by the AutoPatch™ software. Voltage-step protocols and analysis of data was performed as described for conventional electrophysiology.
Electrophysiology voltage-step protocols and analysis of data was performed as follows. Data was sampled at 5 kHz, and filtered with a −3 dB bandwidth of 2.5 kHz. Cells were held at a voltage of −80 mV. Currents were evoked to a voltage step for 1000 ms in duration at 0 mV every 5 s. Currents were analysed using Pulsefit software (v8.54, HEKA, Germany), with the total charge measured during the whole of the voltage step. All other plots were produced using Igor Pro (WaveMetrics).

Structure (SMILES) | inhibition at 1 µM (human Kv1.3) | inhibition at 1 µM (hKv1.5)
O=C(c1ccc(N(Cc2ccccc2)S(=O)(=O)c2ccccc2)cc1)N1CCN(c2ccccc2)CC1 [Example 9, N-Benzyl-N-[4-(4-phenyl-piperazine-1-carbonyl)-phenyl]-benzenesulfonamide] | 99% | 64.5%
O=C(c1ccc(N(Cc2ccccc2)S(=O)(=O)c2ccsc2)cc1)N1CCN(c2ccccc2)CC1 [Example 18, Thiophene-3-sulfonic acid benzyl-[4-(4-phenyl-piperazine-1-carbonyl)-phenyl]-amide] | 80% | 82.9%
CCc1ccc(S(=O)(=O)N(Cc2ccccc2)c2ccc(C(=O)N3CCN(c4ccccc4)CC3)cc2)cc1 [Example 42, N-Benzyl-4-ethyl-N-[4-(4-phenyl-piperazine-1-carbonyl)-phenyl]-benzenesulfonamide] | 76% | 66.4%
O=C(c1ccc(N(Cc2ccccc2Cl)S(=O)(=O)c2ccccc2)cc1)N1CCN(c2ccccc2)CC1 [Example 10, N-(2-Chloro-benzyl)-N-[4-(4-phenyl-piperazine-1-carbonyl)-phenyl]-benzenesulfonamide] | 86% | 47.9%
O=C(c1ccc(N(Cc2cccc(Cl)c2)S(=O)(=O)c2ccccc2)cc1)N1CCN(c2ccccc2)CC1 [Example 11, N-(3-Chloro-benzyl)-N-[4-(4-phenyl-piperazine-1-carbonyl)-phenyl]-benzenesulfonamide] | 92% | 73.6%
O=C(c1ccc(N(Cc2ccc(F)cc2)S(=O)(=O)c2ccccc2)cc1)N1CCN(c2ccccc2)CC1 [Example 12, N-(4-Fluoro-benzyl)-N-[4-(4-phenyl-piperazine-1-carbonyl)-phenyl]-benzenesulfonamide] | 93% | 56.3%
O=C(c1ccc(N(Cc2ccccc2)S(=O)(=O)c2cccs2)cc1)N1CCN(c2ccccc2)CC1 [Example 17, Thiophene-2-sulfonic acid benzyl-[4-(4-phenyl-piperazine-1-carbonyl)-phenyl]-amide] | 34% | 47.3%
O=C(c1ccc(N(Cc2ccccc2)S(=O)(=O)c2cccc(Cl)c2)cc1)N1CCN(c2ccccc2)CC1 [Example 30, N-Benzyl-3-chloro-N-[4-(4-phenyl-piperazine-1-carbonyl)-phenyl]-benzenesulfonamide] | 92% | 85.6%
Cc1ccccc1S(=O)(=O)N(Cc1ccccc1)c1ccc(C(=O)N2CCN(c3ccccc3)CC2)cc1 [Example 26, N-Benzyl-2-methyl-N-[4-(4-phenyl-piperazine-1-carbonyl)-phenyl]-benzenesulfonamide] | 82% | 85.5%
COc1cccc(S(=O)(=O)N(Cc2ccccc2)c2ccc(C(=O)N3CCN(c4ccccc4)CC3)cc2)c1 [Example 28, N-Benzyl-3-methoxy-N-[4-(4-phenyl-piperazine-1-carbonyl)-phenyl]-benzenesulfonamide] | 74% | 81.2%

Results, then the molecule that gave them:

inhibition at 1 µM (human Kv1.3) | inhibition at 1 µM (hKv1.5) | Structure (SMILES)
47% | 45.2% | COc1ccc(C2CCCN(C(=O)c3ccc(N(Cc4ccc(Cl)cc4)S(=O)(=O)c4ccccc4)cc3)C2)cc1 (centres unmarked) [Example 57, N-(4-Chloro-benzyl)-N-{4-[3-(4-methoxy-phenyl)-piperidine-1-carbonyl]-phenyl}-benzenesulfonamide]
93% | 74.4% | Cn1cnc(S(=O)(=O)N(Cc2ccccc2)c2ccc(C(=O)N3CCOC(c4ccccc4)C3)cc2)c1 (centres unmarked) [Example 63, 1-Methyl-1H-imidazole-4-sulfonic acid benzyl-[4-(2-phenyl-morpholine-4-carbonyl)-phenyl]-amide]
79% | 49.3% | Cc1nc(C)c(S(=O)(=O)N(Cc2ccccc2)c2ccc(C(=O)N3CCN(c4ccccc4)CC3)cc2)s1 [Example 48, 2,4-Dimethyl-thiazole-5-sulfonic acid benzyl-[4-(4-phenyl-piperazine-1-carbonyl)-phenyl]-amide]
42% | 57.5% | COc1cccc(CN(c2ccc(C(=O)N3CCN(c4ccccc4)CC3)cc2)S(=O)(=O)c2ccccc2)c1OC [Example 51, N-(2,3-Dimethoxy-benzyl)-N-[4-(4-phenyl-piperazine-1-carbonyl)-phenyl]-benzenesulfonamide]
89% | 67.5% | Cn1cnc(S(=O)(=O)N(Cc2ccc(Cl)cc2)c2ccc(C(=O)N3CCCC(c4ccccc4)C3)cc2)c1 (centres unmarked) [Example 61, 1-Methyl-1H-imidazole-4-sulfonic acid (4-chloro-benzyl)-[4-(3-phenyl-piperidine-1-carbonyl)-phenyl]-amide]
67% | 43.4% | Cn1cnc(S(=O)(=O)N(Cc2cccc(Cl)c2)c2ccc(C(=O)N3CCCCC3)cc2)c1 [Example 93, 1-Methyl-1H-imidazole-4-sulfonic acid (3-chloro-benzyl)-[4-(piperidine-1-carbonyl)-phenyl]-amide]
